Reference: ChEMBL document CHEMBL3887008, “Pyrrolinone carboxamide compounds useful as endothelial lipase inhibitors” (2016)

Target: T1, Endothelial lipase (Homo sapiens, UniProt Q9Y5X9)
T1 sequence (Q9Y5X9 whole entry): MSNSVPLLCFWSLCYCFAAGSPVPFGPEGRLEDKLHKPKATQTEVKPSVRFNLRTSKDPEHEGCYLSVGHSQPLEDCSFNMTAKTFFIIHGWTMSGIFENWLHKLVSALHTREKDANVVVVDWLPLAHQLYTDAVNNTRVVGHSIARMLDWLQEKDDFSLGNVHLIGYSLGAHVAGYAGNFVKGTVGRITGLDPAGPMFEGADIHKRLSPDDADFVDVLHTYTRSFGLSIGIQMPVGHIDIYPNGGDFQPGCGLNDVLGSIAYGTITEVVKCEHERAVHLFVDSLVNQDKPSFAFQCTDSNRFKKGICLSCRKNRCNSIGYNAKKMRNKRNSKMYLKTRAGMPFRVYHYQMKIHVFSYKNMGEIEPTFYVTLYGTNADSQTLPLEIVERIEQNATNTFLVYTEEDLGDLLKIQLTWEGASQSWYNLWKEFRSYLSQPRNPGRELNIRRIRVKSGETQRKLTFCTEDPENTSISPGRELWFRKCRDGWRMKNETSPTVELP
Experiment: Enzymatic Assay: Endothelial lipase activity was measured using a fluorescent substrate, A10070, (Invitrogen, CA) doped into an artificial vesicle containing DMPG (Avanti Polar Lipids) as the excipient. Vesicles were prepared by combining 285 uL of 1 mMDMPG in a 1:1 mixture of MeOH and CHCl3 with 15 uL of 1 mM A10070 in a 1:1 mixture of MeOH and CHCl3. The mixture was dried under nitrogen and resuspended in 150 uL of 50 mM HEPES pH 8.0 buffer containing 100 mM NaCl and 0.2 mM EDTA. The sample was allowed to sit at rt for 15 min and then was sonicated 3x4 mins on ice with a Branson Sonicator using duty cycle 1. This preparation provides vesicles with a mole fraction of 0.05 for the FRET substrate.The enzymatic assay was measured using white, opaque 96-well half area plates. Each well contained 60 uL of assay buffer (50 mM HEPES pH 8.0, 50 mM NaCl and 1 mM CaCl2) and 2 ul of a DMSO solution containing compound of interest. Conditioned media obtained from HT-1080 cells, which were transformed by RAGE technology (Athersys) to overexpress endogenous EL, was added and the reaction was allowed to incubate for 20 min at 37deg; C. with gentle agitation. The reaction was started by the addition of 20 uL of a 1:4 dilution of vesicles. The final total reaction volume was 100 uL. The reaction rates were measured on a Gemini plate reader with an excitation wavelength of 488 nm and a emission of 530 nm. Readings were taken every 20 seconds for 10 min with agitation between each reading. The slope of the linear portion of the readout was used to calculate the rate of the reaction.
Format: cell-based

| IC50 | SMILES |
| --- | --- |
| 0.027 µM | CN1CC(C(=O)NCc2ccc(Oc3ccc(Cl)c(Cl)c3)cc2)=C(O)C1=O |
| 0.043 µM | CN1CC(C(=O)NCc2ccc(Oc3ccccc3)cc2)=C(O)C1=O |
| 0.0221 µM | CN1CC(C(=O)NCCCOc2cccc(Oc3ccccc3)c2)=C(O)C1=O |
| 0.0271 µM | CC(=O)Nc1ccc(-c2cccc([C@@H](C)NC(=O)C3=C(O)C(=O)N(c4ccc(F)cc4F)C3)c2)cc1 |
